Measured values published in publication PMC11905336, “Pyrrole‐Tethered Bisbenzoxazole Derivatives: Apoptosis‐Inducing Agents Targeting Breast Cancer Cells” (Chemical Biology & Drug Design, 2025).
Where two headings read alike, the source gives them in different places.

Tests used:
MCF‐7 cell line = system: MCF‐7 cell line; design: method as in earlier work; details: MCF-7, XTT assay, ref Kuzu, Hepokur, Alagoz, et al. [2022], Turkmenoglu; cited from earlier work
MCF‐7 cell lines = assay: MTT assay, cytotoxicity on MCF-7 cells; type: cell-based, human; details: for IC50: Homo sapiens, MTT; for IC50 in MCF-7 compared to tamoxifen (fold lower): MCF-7, MTT
Experimental: The cytotoxic effects of PTB derivatives on MCF‐7 breast cancer cells were evaluated using the MTT assay at various concentrations (100 nM, 1 μM, 10 μM, 50 μM, and 100 μM).
(§1) The human dermal fibroblast (HDFa) and human breast cancer cells (MCF‐7) were obtained from the American Type Culture Collection (ATCC; Manassas, VA, USA). Cells were cultured in RPMI medium (MCF‐7) and DMEM medium (HDFa) was supplemented with 10% FBS, 1% penicillin–streptomycin, 1% amphotericin, and 2.5% L‐glutamine at 37°C in a 5% CO2 incubator.
MTT Method. The MTT method is used to detect and quantify living organisms cultured with the method colorimetrically. This method relies on intact mitochondria cleaving the tetrazolium ring of the MTT dye. The MTT substance is absorbed and reduced to a colorful, water‐insoluble formazan by a mitochondria‐dependent reaction. Cell viability is measured based on the MTT reduction property, and the density of dye obtained from MTT analysis indicates the number of viable cells. In this study, cell viability was assessed using the MTT (0.5 mg/mL) solution that was added to each well. […] After adding properties to cultures, they were kept at 37°C for 24 h and overnight. Then, at 48 and 72 h after applying the molecules, 10 μL of MTT was added to each well and incubated under similar conditions for 4 h. Absorbance spectrophotometry was performed at a wavelength of 570 nm using the IC50 = [(control absorbents‐sample absorbents)/control absorbents] × 100 calculation method (Khorsandi et al. [2017]).

HDFa cell lines = assay: Cytotoxicity on healthy dermal fibroblasts (MTT / xCELLigence real-time cell analysis); type: cell-based; details: Homo sapiens
Experimental: The cytotoxicity of these derivatives was also assessed in dermal fibroblast cells using xCELLigence analysis as detailed in the Supporting Information.
as §1
xCELLigence Real‐Time Cell Analysis. The xCELLigence system (Real‐Time Cell Analyzer (RTCA) Dual Plate (DP) (Roche Diagnostics GmbH, Penzberg)) was used for real‐time monitoring of cell viability without the need for labeling. A total of 1 × 10^4 HDFa cells were seeded into each well of the E‐plate, and the cell proliferation curve was monitored for 24 h. […] The Cell Index (CI) value was automatically measured every hour for each well using RTCA Software (version 1.2.1) (Yetkin et al. [2021]; Yıldırım et al. [2022]).

MCF‐7 cells [1] = assay: Apoptosis/necrosis by flow cytometry, Annexin V/propidium iodide, MCF-7; type: cell-based, human; details: MCF-7, 48 h, p < 0.05
Experimental: Flow cytometry analysis was performed to evaluate the percentages of apoptosis for these compounds compared to tamoxifen. MCF‐7 cell suspensions treated with each compound for 48 h were stained using an apoptosis detection kit and subsequently analyzed using flow cytometry.
(§2) The assessment of apoptosis through flow cytometry is a valuable method for obtaining quantitative results to determine the levels of apoptosis and necrosis in cells. In our study, the 48th‐hour apoptosis levels of three synthases with the lowest IC50 values (PTB derivatives B8, B14, and B18) were evaluated. To assess apoptosis levels, MCF‐7 cells and healthy fibroblast cells were incubated with these synthases for 48 h. After this incubation period, the cells were treated with Annexin‐V APC and PE propidium iodide (PI) dyes to examine apoptosis levels. Then, to examine the levels of apoptosis, the cells were incubated at a concentration of 2 × 10^5 cells/mL with 5 μL Annexin‐V APC and 10 μL PI dyes in 100 μL Binding buffer for 15 min at room temperature. Samples were then washed twice in PBS, and the BD FACS ARIA III flow cytometry device was used to determine the percentage of apoptotic cells. (Ayaz et al. [2022]).

MCF‐7 cells [2] = assay: Cell cycle phases by flow cytometry with propidium iodide, MCF-7; type: cell-based, human; details: for Change of G2 phase averages vs control: MCF-7, 48 h at IC50; for Change of G1 phase vs control / Change of S phase vs control: MCF-7, 48 h at IC50, p < 0.05
Experimental: In the flow cytometry analysis, cell cycle kits facilitated the removal of cytoskeletal and nuclear proteins by disrupting lipid components of the cell membrane using detergents. […] Consequently, we were able to identify abnormal DNA distributions and cell cycle phase profiles in the MCF‐7 breast cancer cell line.
MCF‐7 cells were seeded in a 6‐well plate at a density of 1 × 10^6 cells and incubated for 24 h. […] MCF‐7 cells were then trypsinized, stained, and analyzed using a BD FACSAria III flow cytometer (BD Biosciences, Bedford, MA, USA) with FACS Diva Software and ModFit LT.
The cell cycle kit (MCE USA‐HY‐K1071‐50 T) works on the principle of dissolving the lipids in the cell membrane with the help of detergents. This kit was used to identify cells with abnormal DNA and cell cycle phase distributions in a breast cancer cell line. It was analyzed by removing the cytoskeleton and nuclear proteins with the help of trypsin and digesting the cellular RNA by enzymes. Cells were seeded at 1 × 10^6 in a 6‐well plate and incubated for 24 h. […] Cells were removed by adding trypsin to adherent cells. They were centrifuged at 1000 g for 3–5 min at 4°C, and then the supernatant was discarded. One milliliter of prechilled PBS was added to resuspend the cells, centrifuged at 1000 g for 3–5 min at 4°C, and detected via BD FACSAria III flow cytometer (BD Biosciences, Bedford, MA, USA). Percentage data were obtained using FACS Diva Software and ModFit LT (Şimşek et al. [2020]).

[3] = system: A549 and MCF‐7 cell lines; design: method as in Belal and Abdelgawad [2017]; details: ref Belal and Abdelgawad [2017]; cited from earlier work
HDFa cells = assay: Apoptosis/necrosis by flow cytometry, Annexin V/propidium iodide, HDFa; type: cell-based, human; details: 48 h, same concentrations as in MCF-7, p < 0.05
Experimental: Subsequently, flow cytometry analysis was conducted on HDFa cells.
as §2

[4] = system: HeLa and HepG2 cell lines; design: method as in Srivastava et al. [2015]; details: ref Srivastava et al. [2015]; cited from earlier work
Vero healthy cell line = system: Vero healthy cell line; design: method as in Ersan et al. [2020]; details: ref Ersan et al. [2020]; cited from earlier work
[5] = system: A549, A498, HeLa, and HepG2; design: method as in Ersan et al. [2020]; details: ref Ersan et al. [2020], cited from earlier work
MDA‐MB‐231 = system: MDA‐MB‐231; design: method as in Desai et al. [2020]; details: ref Desai et al. [2020]; cited from earlier work
MCF‐7 = system: MCF‐7; design: method as in Desai et al. [2020]; details: ref Desai et al. [2020]; cited from earlier work
MCF‐7 cells [6] = system: MCF‐7 cells; design: method as in earlier work; details: MCF-7, cell cycle analysis, ref Kuzu, Hepokur, Alagoz, et al. [2022], Turkmenoglu; cited from earlier work
[7] = MCF7, read-out: IC50 (μM) for MCF‐7 cell lines, 48 h
[8] = MCF7, 24 h, read-out: IC50 (μM) for MCF‐7 cell lines, 24 h
[9] = MCF7, 72 h, read-out: IC50 (μM) for MCF‐7 cell lines, 72 h
[10] = 24 h, values greater than 100 not calculated, read-out: IC50 (μM) for HDFa cell lines, 24 h
[11] = 72 h, values greater than 100 not calculated, read-out: IC50 (μM) for HDFa cell lines, 72 h
[12] = read-out: IC50 (μM) for HDFa cell lines, 48 h, values greater than 100 not calculated

O=c1[nH]cc(F)c(=O)[nH]1 [5‐FU, 5‐fluorouracil]
IC50 (MCF‐7 cell line): 5.06 µM

COC(=O)c1ccc2nc(-c3ccc(-c4nc5cc(C)ccc5o4)[nH]3)oc2c1 [Compound B14, Methyl 2‐(5‐(5‐Methylbenzo[d]Oxazol‐2‐Yl)‐1H‐Pyrrol‐2‐Yl)benzo[d]Oxazole‐6‐Carboxylate]
IC50 (MCF‐7 cell lines; [7]): 0.95 ± 1.01 µM
IC50 (MCF‐7 cell lines; [8]): 3.28 ± 0.74 µM
IC50 (MCF‐7 cell lines; [9]): 3.02 ± 2.18 µM
IC50 in MCF-7 compared to tamoxifen (fold lower) (MCF‐7 cell lines): approximately 8 fold
IC50 (HDFa cell lines; [10]): 94.5 ± 1.37 µM
IC50 (HDFa cell lines; [11]): 97.4 ± 2.83 µM
IC50 (HDFa cell lines; [12]): 96.3 ± 1.38 µM
Necrosis percentage vs control (MCF‐7 cells [1]): significant changes in all groups except for the B14 group
Change of G2 phase averages vs control (MCF‐7 cells [2]): No significant changes
Change of G1 phase vs control (MCF‐7 cells [2]): significant increase
Change of S phase vs control (MCF‐7 cells [2]): corresponding decrease

c1ccc(-c2cc(-c3nc4ccccc4o3)[nH]n2)cc1 [Compound 11]
IC50 [3]: 0.12 to 0.19 µM

CC/C(=C(\c1ccccc1)c1ccc(OCCN(C)C)cc1)c1ccccc1 [Tamoxifen, reference compound]
Average number of viable cells vs control (HDFa cells): significant decrease
Percentage of necrosis vs control (HDFa cells): notable increase
Secondary apoptosis vs control (MCF‐7 cells [1]): significantly elevated
Change of G2 phase averages vs control (MCF‐7 cells [2]): No significant changes
Change of G1 phase vs control (MCF‐7 cells [2]): significant increase
Change of S phase vs control (MCF‐7 cells [2]): corresponding decrease

c1ccc(Cn2nnc(-c3ccccc3)c2-c2nc3ccccc3o2)cc1 [Compound 10]
IC50 [4]: 5 to 30 µg/mL

c1ccc2oc(CNCc3nc4ccccc4o3)nc2c1 [Compound 16]
Cytotoxicity against Vero healthy cell line (Vero healthy cell line): minimal cytotoxicity
IC50 ([5]; range across A549, A498, HeLa, HepG2): 0.56 to 2.24 µM
Selectivity for A549 lung cancer cell line compared to other tested cancer cell lines [5]: fourfold higher selectivity

COC(=O)c1ccc2nc(-c3ccc(-c4nc5cc(OC)ccc5o4)[nH]3)oc2c1 [Compound B18, Methyl 2‐(5‐(5‐Methoxybenzo[d]Oxazol‐2‐Yl)‐1H‐Pyrrol‐2‐Yl)benzo[d]Oxazole‐6‐Carboxylate]
IC50 (MCF‐7 cell lines; [7]): 1.3 ± 0.98 µM
IC50 (MCF‐7 cell lines; [8]): 3.53 ± 1.35 µM
IC50 (MCF‐7 cell lines; [9]): 2.69 ± 0.73 µM
IC50 in MCF-7 compared to tamoxifen (fold lower) (MCF‐7 cell lines): approximately 8 fold
Average number of viable cells vs control (HDFa cells): significant decrease
Percentage of necrosis vs control (HDFa cells): notable increase
IC50 (HDFa cell lines; [10]): 98.3 ± 1.58 µM
IC50 (HDFa cell lines; [11]): ≥ 100 µM
IC50 (HDFa cell lines; [12]): ≥ 100 µM
Secondary apoptosis vs control (MCF‐7 cells [1]): significantly elevated
Change of G2 phase averages vs control (MCF‐7 cells [2]): No significant changes
Change of G1 phase vs control (MCF‐7 cells [2]): significant increase
Change of S phase vs control (MCF‐7 cells [2]): corresponding decrease

c1ccc2nc(-c3nc4ccccc4o3)cnc2c1 [Compound 12]
IC50 (MDA‐MB‐231): 0.5 µM
IC50 (MCF‐7): 0.53 µM

COc1ccc2oc(C(=O)N3CCCCC3)nc2c1 [Compound 14]
G0/G1 phase arrest (MCF‐7 cells [6]): 71.2%
